Tests used:
HIV-1IIIB [1] = assay: Two-drug combination antiviral assay in CEM cells (CPE), MacSynergy II; type: cell-based; conditions: for Antagonism Volume, Result 1 / Antagonism Volume, Result 2 / Antagonism Volume, Result 3 / Mean Antagonism Volume (n = 3) / Mean Synergy Volume (n = 3) / Synergy Volume, Result 1 / Synergy Volume, Result 2 / Synergy Volume, Result 3: in combination with CMX157, CEM-SS cells, 95% confidence; for Interpretation of Antiviral Results (MacSynergy): two-drug combination (with CMX157; control d4T/RBV), CEM-SS cells
HIV-1IIIB [2] = assay: TCID50 determination of drug-treated HIV-1IIIB; type: cell-based; parameters: TCID50, XTT Endpoint / TCID50, RT Endpoint / TCID50, P24 Endpoint: unit not given here
[3] = virus treated 15 minutes with 0.039 nM drug
[4] = virus treated 15 minutes with 0.125 nM drug
[5] = virus treated 15 minutes with 0.39 nM drug
[6] = virus treated 15 minutes with 1.25 nM drug
[7] = virus treated 15 minutes with 3.9 nM drug
[8] = virus treated 15 minutes with 12.5 nM drug
[9] = virus treated 15 minutes with 39.1 nM drug
[10] = virus treated 15 minutes with 125 nM drug

Question: Which “Antagonism Volume, Result 1” value (HIV-1IIIB [1]) does the source give for CC(C)(C)NC(=O)[C@@H]1CN(Cc2cccnc2)CCN1C[C@@H](O)C[C@@H](Cc1ccccc1)C(=O)N[C@H]1c2ccccc2C[C@H]1O [Indinavir (IDV), indinavir] here?
Answer: −0.56 nM^2 %, μM^2 % or nMμM %

Question: And the “Antagonism Volume, Result 2” value (HIV-1IIIB [1])?
Answer: 0 nM^2 %, μM^2 % or nMμM %

Question: What about the “Antagonism Volume, Result 3” value (HIV-1IIIB [1]) of the same molecule?
Answer: 0 nM^2 %, μM^2 % or nMμM %

Question: What about the “Mean Antagonism Volume (n = 3)” value (HIV-1IIIB [1]) of the same molecule?
Answer: −0.19 nM^2 %, μM^2 % or nMμM %

Question: And the “Mean Synergy Volume (n = 3)” value (HIV-1IIIB [1])?
Answer: 53.0 nM^2 %, μM^2 % or nMμM %

Question: What about the “Synergy Volume, Result 1” value (HIV-1IIIB [1]) of the same molecule?
Answer: 78.7 nM^2 %, μM^2 % or nMμM %

Question: And the “Synergy Volume, Result 2” value (HIV-1IIIB [1])?
Answer: 62.7 nM^2 %, μM^2 % or nMμM %

Question: What about the “Synergy Volume, Result 3” value (HIV-1IIIB [1]) of the same molecule?
Answer: 17.6 nM^2 %, μM^2 % or nMμM %

Question: What about the “Interpretation of Antiviral Results (MacSynergy)” value (HIV-1IIIB [1]) of the same molecule?
Answer: slightly synergistic

Question: How did the “Antagonism Volume, Result 1” value (HIV-1IIIB [1]) turn out when CC(C)(C)NC(=O)[C@@H]1C[C@@H]2CCCC[C@@H]2CN1C[C@@H](O)[C@H](Cc1ccccc1)NC(=O)[C@H](CC(N)=O)NC(=O)c1ccc2ccccc2n1 [Saquinavir (SQV), saquinavir] was run?
Answer: −2.54 nM^2 %, μM^2 % or nMμM %

Question: What about the “Antagonism Volume, Result 2” value (HIV-1IIIB [1]) of the same molecule?
Answer: −0.81 nM^2 %, μM^2 % or nMμM %

Question: And the “Antagonism Volume, Result 3” value (HIV-1IIIB [1])?
Answer: 0 nM^2 %, μM^2 % or nMμM %

Question: What about the “Mean Antagonism Volume (n = 3)” value (HIV-1IIIB [1]) of the same molecule?
Answer: −1.12 nM^2 %, μM^2 % or nMμM %

Question: What about the “Mean Synergy Volume (n = 3)” value (HIV-1IIIB [1]) of the same molecule?
Answer: 45.2 nM^2 %, μM^2 % or nMμM %

Question: And the “Synergy Volume, Result 1” value (HIV-1IIIB [1])?
Answer: 123 nM^2 %, μM^2 % or nMμM %

Question: What about the “Synergy Volume, Result 2” value (HIV-1IIIB [1]) of the same molecule?
Answer: 8.35 nM^2 %, μM^2 % or nMμM %

Question: What about the “Synergy Volume, Result 3” value (HIV-1IIIB [1]) of the same molecule?
Answer: 3.93 nM^2 %, μM^2 % or nMμM %

Question: Which “Antagonism Volume, Result 1” value (HIV-1IIIB [1]) does the source give for CC(C)CN(C[C@@H](O)[C@H](Cc1ccccc1)NC(=O)O[C@H]1CCOC1)S(=O)(=O)c1ccc(N)cc1 [Amprenavir (APV), amprenavir] here?
Answer: 0 nM^2 %, μM^2 % or nMμM %

Question: What about the “Antagonism Volume, Result 2” value (HIV-1IIIB [1]) of the same molecule?
Answer: 0 nM^2 %, μM^2 % or nMμM %

Question: What about the “Antagonism Volume, Result 3” value (HIV-1IIIB [1]) of the same molecule?
Answer: 0 nM^2 %, μM^2 % or nMμM %

Question: What about the “Mean Antagonism Volume (n = 3)” value (HIV-1IIIB [1]) of the same molecule?
Answer: 0 nM^2 %, μM^2 % or nMμM %

Question: What about the “Mean Synergy Volume (n = 3)” value (HIV-1IIIB [1]) of the same molecule?
Answer: 51.4 nM^2 %, μM^2 % or nMμM %

Question: And the “Synergy Volume, Result 1” value (HIV-1IIIB [1])?
Answer: 104 nM^2 %, μM^2 % or nMμM %

Question: And the “Synergy Volume, Result 2” value (HIV-1IIIB [1])?
Answer: 43.1 nM^2 %, μM^2 % or nMμM %

Question: What about the “Synergy Volume, Result 3” value (HIV-1IIIB [1]) of the same molecule?
Answer: 7.31 nM^2 %, μM^2 % or nMμM %

Question: And the “Interpretation of Antiviral Results (MacSynergy)” value (HIV-1IIIB [1])?
Answer: slightly synergistic

Question: Cc1nnc(C(=O)NC(C)(C)c2nc(C(=O)NCc3ccc(F)cc3)c(O)c(=O)n2C)o1 [Raltegravir (RAL), raltegravir] was tested. Which “Antagonism Volume, Result 1” value (HIV-1IIIB [1]) did it give?
Answer: 0 nM^2 %, μM^2 % or nMμM %

Question: What about the “Antagonism Volume, Result 2” value (HIV-1IIIB [1]) of the same molecule?
Answer: 0 nM^2 %, μM^2 % or nMμM %

Question: What about the “Antagonism Volume, Result 3” value (HIV-1IIIB [1]) of the same molecule?
Answer: 0 nM^2 %, μM^2 % or nMμM %

Question: What about the “Mean Antagonism Volume (n = 3)” value (HIV-1IIIB [1]) of the same molecule?
Answer: 0 nM^2 %, μM^2 % or nMμM %

Question: What about the “Mean Synergy Volume (n = 3)” value (HIV-1IIIB [1]) of the same molecule?
Answer: 34.3 nM^2 %, μM^2 % or nMμM %

Question: What about the “Synergy Volume, Result 1” value (HIV-1IIIB [1]) of the same molecule?
Answer: 18.4 nM^2 %, μM^2 % or nMμM %

Question: And the “Synergy Volume, Result 2” value (HIV-1IIIB [1])?
Answer: 1.92 nM^2 %, μM^2 % or nMμM %

Question: And the “Synergy Volume, Result 3” value (HIV-1IIIB [1])?
Answer: 82.6 nM^2 %, μM^2 % or nMμM %

Question: How did the “effect on infectious virus” value (HIV-1IIIB [2]; 15 minutes, 0.039 to 125 nM) turn out when CCCCCCCCCCCCCCCCOCCCOP(=O)(O)OCCOCn1cnc2c(=O)[nH]c(N)nc21 [HDP-ACV] was run?
Answer: no effect

Question: And the “Fold Decrease From VC, P24 Endpoint” value (HIV-1IIIB [2]; [3])?
Answer: (0) Fold

Question: And the “Fold Decrease From VC, RT Endpoint” value (HIV-1IIIB [2]; [3])?
Answer: (1.2) Fold

Question: What about the “Fold Decrease From VC, XTT Endpoint” value (HIV-1IIIB [2]; [3]) of the same molecule?
Answer: (0) Fold

Question: What about the “TCID50, P24 Endpoint” value (HIV-1IIIB [2]; [3]) of the same molecule?
Answer: 30411

Question: And the “TCID50, RT Endpoint” value (HIV-1IIIB [2]; [3])?
Answer: 132749

Question: What about the “TCID50, XTT Endpoint” value (HIV-1IIIB [2]; [3]) of the same molecule?
Answer: 18115

Question: What about the “Fold Decrease From VC, P24 Endpoint” value (HIV-1IIIB [2]; [4]) of the same molecule?
Answer: (0) Fold

Question: What about the “Fold Decrease From VC, RT Endpoint” value (HIV-1IIIB [2]; [4]) of the same molecule?
Answer: (1.6) Fold

Question: And the “Fold Decrease From VC, XTT Endpoint” value (HIV-1IIIB [2]; [4])?
Answer: (1.1) Fold

Question: What about the “TCID50, P24 Endpoint” value (HIV-1IIIB [2]; [4]) of the same molecule?
Answer: 36277

Question: And the “TCID50, RT Endpoint” value (HIV-1IIIB [2]; [4])?
Answer: 102336

Question: What about the “TCID50, XTT Endpoint” value (HIV-1IIIB [2]; [4]) of the same molecule?
Answer: 16145

Question: What about the “Fold Decrease From VC, P24 Endpoint” value (HIV-1IIIB [2]; [5]) of the same molecule?
Answer: (0) Fold

Question: And the “Fold Decrease From VC, RT Endpoint” value (HIV-1IIIB [2]; [5])?
Answer: (1.1) Fold

Question: And the “Fold Decrease From VC, XTT Endpoint” value (HIV-1IIIB [2]; [5])?
Answer: (0) Fold

Question: And the “TCID50, P24 Endpoint” value (HIV-1IIIB [2]; [5])?
Answer: 30411

Question: What about the “TCID50, RT Endpoint” value (HIV-1IIIB [2]; [5]) of the same molecule?
Answer: 144887

Question: What about the “TCID50, XTT Endpoint” value (HIV-1IIIB [2]; [5]) of the same molecule?
Answer: 20325

Question: What about the “Fold Decrease From VC, P24 Endpoint” value (HIV-1IIIB [2]; [6]) of the same molecule?
Answer: (1.4) Fold

Question: And the “Fold Decrease From VC, RT Endpoint” value (HIV-1IIIB [2]; [6])?
Answer: (1.6) Fold

Question: And the “Fold Decrease From VC, XTT Endpoint” value (HIV-1IIIB [2]; [6])?
Answer: (1.1) Fold

Question: What about the “TCID50, P24 Endpoint” value (HIV-1IIIB [2]; [6]) of the same molecule?
Answer: 21529

Question: What about the “TCID50, RT Endpoint” value (HIV-1IIIB [2]; [6]) of the same molecule?
Answer: 102336

Question: What about the “TCID50, XTT Endpoint” value (HIV-1IIIB [2]; [6]) of the same molecule?
Answer: 16145

Question: And the “Fold Decrease From VC, P24 Endpoint” value (HIV-1IIIB [2]; [7])?
Answer: (0) Fold

Question: And the “Fold Decrease From VC, RT Endpoint” value (HIV-1IIIB [2]; [7])?
Answer: (1.6) Fold

Question: What about the “Fold Decrease From VC, XTT Endpoint” value (HIV-1IIIB [2]; [7]) of the same molecule?
Answer: (0) Fold

Question: And the “TCID50, P24 Endpoint” value (HIV-1IIIB [2]; [7])?
Answer: 30411

Question: What about the “TCID50, RT Endpoint” value (HIV-1IIIB [2]; [7]) of the same molecule?
Answer: 102336

Question: What about the “TCID50, XTT Endpoint” value (HIV-1IIIB [2]; [7]) of the same molecule?
Answer: 20325

Question: What about the “Fold Decrease From VC, P24 Endpoint” value (HIV-1IIIB [2]; [8]) of the same molecule?
Answer: (0) Fold

Question: What about the “Fold Decrease From VC, RT Endpoint” value (HIV-1IIIB [2]; [8]) of the same molecule?
Answer: (1.1) Fold

Question: What about the “Fold Decrease From VC, XTT Endpoint” value (HIV-1IIIB [2]; [8]) of the same molecule?
Answer: (0) Fold

Question: And the “TCID50, P24 Endpoint” value (HIV-1IIIB [2]; [8])?
Answer: 36227

Question: What about the “TCID50, RT Endpoint” value (HIV-1IIIB [2]; [8]) of the same molecule?
Answer: 144887

Question: What about the “TCID50, XTT Endpoint” value (HIV-1IIIB [2]; [8]) of the same molecule?
Answer: 18115

Question: And the “Fold Decrease From VC, P24 Endpoint” value (HIV-1IIIB [2]; [9])?
Answer: (0) Fold

Question: And the “Fold Decrease From VC, RT Endpoint” value (HIV-1IIIB [2]; [9])?
Answer: (0) Fold

Question: And the “Fold Decrease From VC, XTT Endpoint” value (HIV-1IIIB [2]; [9])?
Answer: (1.1) Fold

Question: What about the “TCID50, P24 Endpoint” value (HIV-1IIIB [2]; [9]) of the same molecule?
Answer: 30411

Question: And the “TCID50, RT Endpoint” value (HIV-1IIIB [2]; [9])?
Answer: 204659

Question: And the “TCID50, XTT Endpoint” value (HIV-1IIIB [2]; [9])?
Answer: 16145

Question: What about the “Fold Decrease From VC, P24 Endpoint” value (HIV-1IIIB [2]; [10]) of the same molecule?
Answer: (1.4) Fold

Question: And the “Fold Decrease From VC, RT Endpoint” value (HIV-1IIIB [2]; [10])?
Answer: (0) Fold

Question: And the “Fold Decrease From VC, XTT Endpoint” value (HIV-1IIIB [2]; [10])?
Answer: (0) Fold

Question: And the “TCID50, P24 Endpoint” value (HIV-1IIIB [2]; [10])?
Answer: 21529

Question: What about the “TCID50, RT Endpoint” value (HIV-1IIIB [2]; [10]) of the same molecule?
Answer: 162566

Question: And the “TCID50, XTT Endpoint” value (HIV-1IIIB [2]; [10])?
Answer: 18115

Source: patent US8993542B2, “Methods of treating viral infections” (priority 2008, dated 2015)
